Test results: patent US8101760B2, “Glucocorticoid receptor modulator and methods of use” (Eli Lilly and Company, priority 2007, dated 2012)

Columns and labels:
[1] = target: T1, human PR (progesterone receptor) (Homo sapiens, UniProt P06401); test: Nuclear hormone receptor binding assay, PR
T1 construct: expressed in transfected cells; host or cells: HEK293 (lysate, '293-PR lysate')
T1 sequence (P06401 1-933): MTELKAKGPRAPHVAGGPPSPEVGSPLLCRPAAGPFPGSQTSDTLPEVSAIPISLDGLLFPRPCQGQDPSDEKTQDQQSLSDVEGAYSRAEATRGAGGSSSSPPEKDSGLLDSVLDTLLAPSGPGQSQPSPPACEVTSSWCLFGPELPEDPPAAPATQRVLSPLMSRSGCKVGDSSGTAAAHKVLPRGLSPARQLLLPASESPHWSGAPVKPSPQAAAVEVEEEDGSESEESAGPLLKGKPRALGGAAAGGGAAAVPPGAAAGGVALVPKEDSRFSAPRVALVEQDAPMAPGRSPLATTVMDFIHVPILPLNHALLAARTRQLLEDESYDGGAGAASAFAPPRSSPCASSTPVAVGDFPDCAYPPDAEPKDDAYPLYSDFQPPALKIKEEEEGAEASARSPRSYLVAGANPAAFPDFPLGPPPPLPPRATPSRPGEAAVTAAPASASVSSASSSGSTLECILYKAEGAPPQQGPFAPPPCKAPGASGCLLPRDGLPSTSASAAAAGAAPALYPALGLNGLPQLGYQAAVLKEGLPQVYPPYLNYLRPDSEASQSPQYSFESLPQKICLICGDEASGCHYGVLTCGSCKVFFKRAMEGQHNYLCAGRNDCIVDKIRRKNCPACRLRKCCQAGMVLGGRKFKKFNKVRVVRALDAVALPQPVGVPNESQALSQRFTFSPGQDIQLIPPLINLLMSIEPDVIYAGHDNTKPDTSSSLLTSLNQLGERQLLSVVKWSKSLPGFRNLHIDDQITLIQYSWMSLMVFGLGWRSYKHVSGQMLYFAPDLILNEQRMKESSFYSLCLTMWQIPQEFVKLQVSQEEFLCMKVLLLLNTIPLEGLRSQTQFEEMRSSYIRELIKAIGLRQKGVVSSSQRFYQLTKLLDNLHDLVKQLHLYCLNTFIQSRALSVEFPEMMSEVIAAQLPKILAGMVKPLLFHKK
Experimental: Cell lysates from human embryonic kidney HEK293 cells overexpressing human GR (glucocorticoid receptor), AR (androgen receptor), MR (mineralocorticoid receptor), or PR (progesterone receptor) are used for receptor-ligand competition binding assays to determine Ki values.
Briefly, steroid receptor competition binding assays are run in a buffer containing 20 mM Hepes buffer (pH=7.6), 0.2 mM EDTA, 75 mM NaCl, 1.5 mM MgCl2, 20% glycerol, 20 mM sodium molybdate, 0.2 mM DTT (dithiothreitol), 20 μg/mL aprotinin and 20 μg/mL leupeptin. Typically, steroid receptor binding assays include radio-labeled ligands, such as 0.3 nM [^3H]-dexamethasone for GR binding, 0.36 nM [^3H]-methyltrienolone for AR binding, 0.25 nM [^3H]-aldosterone for MR binding, and 0.29 nM [^3H]-methyltrienolone for PR binding, and either 20 μg 293-GR lysate, 22 μg 293-AR lysate, 20 μg 293-MR lysate or 40 μg 293-PR lysate per well. Assays are typically run in 96-well format. Competing test compounds are added at various concentrations ranging from about 0.01 nM to 10 μM. Non-specific binding is determined in the presence of 500 nM dexamethasone for GR binding, 500 nM aldosterone for MR binding, or 500 nM methyltrienolone for AR and PR binding. […] After an incubation of 2 hours, plates are read in a Wallac Microbeta counter. […]

[2] = target: T2, human progesterone receptor (PR) (Homo sapiens, UniProt P06401); test: Nuclear hormone receptor functional modulation assay (GRE-luciferase, HEK293), PR; type: cell-based
T2 construct: expressed in transfected cells; host or cells: HEK293, transient transfection (Fugene), CMV promoter plasmid
T2 sequence (P06401 1-933): T1 sequence (P06401 1-933)
Excerpt: The solvents, reagents, and ligands employed in the functional assay are readily available from commercial sources, or can be prepared by one of ordinary skill in the art.
Human embryonic kidney HEK293 cells are transfected with steroid hormone receptor and reporter gene plasmids using Fugene™ (Roche Diganostics) transfection reagent. Briefly, the reporter plasmid containing two copies of probasin ARE (androgen response element 5′GGTTCTTGGAGTACT3′ (SEQ ID NO:1)) and TK(thymidine kinase) promoter upstream of the luciferase reporter cDNA, is transfected into HEK293 cells with a plasmid constitutively expressing human androgen receptor (AR) using viral CMV(cytomegalovirus) promoter. The reporter plasmid containing two copies of GRE (glucocorticoid response element 5′TGTACAGGATGTTCT′3 (SEQ ID NO:2)) and TK promoter upstream of the luciferase reporter cDNA is transfected with a plasmid constitutively expressing either human glucocorticoid receptor (GR), human mineralocorticoid receptor (MR), or human progesterone receptor (PR) using viral CMV promoter. Cells are transfected in T150 cm flasks in DMEM media with 5% charcoal-stripped Fetal Bovine Serum (FBS). […] In the antagonist mode for the assays, low concentrations of agonist for each respective receptor are added to the media (0.25 nM dexamethasone for GR, 0.3 nM of methyltrienolone for AR, 0.05 nM of promegestone for PR and 0.05 nM aldosterone for MR), and the ability of test compound to antagonize the agonist response is determined. After 24 hours of incubation with test compounds, cells are lysed and luciferase activity is determined using standard techniques.
Data are fitted to a four parameter-fit logistic curve fit to determine EC50 values. […] IC50 values may be determined similarly using antagonist mode assay data. Percent inhibitions may also be determined relative to the response in the presence of agonist alone, as described above.

[3] = Metabolic profiling of plasma after in vivo administration, monkey

CC/C(=C1\c2ccc(Cl)cc2OCc2ncccc21)c1cccc(NS(C)(=O)=O)c1 [Compound (I), (E)-N-{3-[1-(8-Chloro-11H-10-oxa-1-aza-dibenzo[a,d]cyclohepten-5-ylidene)-propyl]-phenyl}-methanesulfonamide]
Ki ([1]; HEK293 cell lysate expressing human PR, [3H]-methyltrienolone, mean of 5 determinations): 31 nM
greater affinity for GR relative to PR ([1]; binding selectivity GR vs PR): ≥ 30 fold
EC50 ([2]; agonist mode, activating transcription): > 10000 nM
modulation of gene expression mediated by PR ([2]; functional modulation, in words): only limited activity
PR % Eff. ([2]; percent efficacy at 10 μM relative to 30 nM promegestone, mean of 3): 40.1%
metabolites in plasma [3]: no metabolites detected
circulating entity in plasma ([3]; after in vivo administration): major circulating entity
